Measured values reported in ChEMBL document CHEMBL1201862, “PubChem BioAssay data set” (2004).
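Briefly, cells in 96-well plates were exposed to five compound concentrations for 48 h, and endpoints were estimated by linear interpolation. GI50 = concentration required for 50% inhibition of growth.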 Activity calls are given as the source filed them. Rule as the data show it: active = GI50 up to about 1.1 µM and inactive = higher.

Assays:
Assay in all cases: inhibition of tumour cell growth, NCI panel, 48 h
[1] = system: SF-295
[2] = system: EKVX
[3] = system: U-251
[4] = system: ACHN
[5] = system: TK-10
[6] = system: HOP-62
[7] = system: CAKI-1
[8] = system: LOX IMVI
[9] = system: KM12
[10] = system: HL-60
[11] = system: A549
[12] = system: MDA-N
[13] = system: NCI-H522
[14] = system: SNB-75
[15] = system: MDA-MB-231
[16] = system: SF-539
[17] = system: NCI-H23
[18] = system: MDA-MB-435
[19] = system: UO-31
[20] = system: COLO 205
[21] = system: SN12C
[22] = system: SK-MEL-5
[23] = system: SNB-19
[24] = system: NCI/ADR-RES
[25] = system: RPMI-8226
[26] = system: SR
[27] = system: 786-0
[28] = system: DU-145
[29] = system: OVCAR-4
[30] = system: T47D
[31] = system: NCI-H226
[32] = system: UACC-62
[33] = system: BT-549
[34] = system: HCT-116
[35] = system: OVCAR-8
[36] = system: IGROV-1
[37] = system: SK-MEL-28
[38] = system: HCT-15
[39] = system: NCI-H460
[40] = system: OVCAR-3
[41] = system: MCF7
[42] = system: SK-MEL-2
[43] = system: MOLT-4
[44] = system: SK-OV-3
[45] = system: SW-620
[46] = system: M14
[47] = system: UACC-257
[48] = system: Malme-3M
[49] = system: Hs-578T
[50] = system: K562
[51] = system: HT-29
[52] = system: HCC 2998
[53] = system: OVCAR-5
[54] = system: SF-268
[55] = system: CCRF-CEM
[56] = system: PC-3
[57] = system: RXF 393
[58] = system: A498

CC1=CC=C2c3ccccc3C=CN2C(=O)C1
GI50 [1]: > 100 µM (inactive)
GI50 [2]: 23 µM (inactive)
GI50 [3]: 60.4 µM (inactive)
GI50 [4]: 62.5 µM (inactive)
GI50 [5]: 20.1 µM (inactive)
GI50 [6]: > 100 µM (inactive)
GI50 [7]: 56.5 µM (inactive)
GI50 [8]: 40.9 µM (inactive)
GI50 [9]: 36.3 µM (inactive)
GI50 [10]: 16.9 µM (inactive)
GI50 [11]: 41.3 µM (inactive)
GI50 [12]: 37.2 µM (inactive)
GI50 [13]: 43.3 µM (inactive)
GI50 [14]: 38.4 µM (inactive)
GI50 [15]: 40.5 µM (inactive)
GI50 [16]: 73.8 µM (inactive)
GI50 [17]: 61.9 µM (inactive)
GI50 [18]: 34.8 µM (inactive)
GI50 [19]: 30.9 µM (inactive)
GI50 [20]: 42.5 µM (inactive)
GI50 [21]: 63.5 µM (inactive)
GI50 [22]: 22.1 µM (inactive)
GI50 [23]: 70.5 µM (inactive)
GI50 [24]: 38.7 µM (inactive)
GI50 [25]: 25.7 µM (inactive)
GI50 [26]: 40.7 µM (inactive)
GI50 [27]: 60.7 µM (inactive)
GI50 [28]: 52 µM (inactive)
GI50 [29]: > 100 µM (inactive)
GI50 [30]: 32.4 µM (inactive)
GI50 [31]: 54.8 µM (inactive)
GI50 [32]: 84.9 µM (inactive)
GI50 [33]: 18.9 µM (inactive)
GI50 [34]: 40.8 µM (inactive)
GI50 [35]: 56.5 µM (inactive)
GI50 [36]: > 100 µM (inactive)
GI50 [37]: 90.4 µM (inactive)
GI50 [38]: 45.9 µM
GI50 [39]: 53.2 µM (inactive)
GI50 [40]: 95.3 µM (inactive)
GI50 [41]: 45.3 µM (inactive)
GI50 [42]: 22.4 µM (inactive)
GI50 [43]: 25.6 µM (inactive)
GI50 [44]: > 100 µM (inactive)
GI50 [45]: 49.8 µM (inactive)
GI50 [46]: 62.1 µM (inactive)
GI50 [47]: 96.6 µM (inactive)
GI50 [48]: > 100 µM (inactive)
GI50 [49]: 35.6 µM (inactive)
GI50 [50]: 37.8 µM (inactive)
GI50 [51]: 51.4 µM (inactive)
GI50 [52]: 56.6 µM (inactive)
GI50 [53]: > 100 µM (inactive)
GI50 [54]: 60.3 µM (inactive)
GI50 [55]: 38.8 µM (inactive)
GI50 [56]: 50 µM (inactive)

Cn1c2ccccc2c2cc(N3CCCC3)c3c(c21)C(=O)N(c1ccccc1)C3=O
GI50 [1]: > 100 µM (inactive)
GI50 [2]: 86.7 µM (inactive)
GI50 [3]: > 100 µM (inactive)
GI50 [4]: > 100 µM (inactive)
GI50 [5]: > 100 µM (inactive)
GI50 [6]: 60.8 µM (inactive)
GI50 [8]: > 100 µM (inactive)
GI50 [9]: > 100 µM (inactive)
GI50 [10]: > 100 µM (inactive)
GI50 [11]: > 100 µM (inactive)
GI50 [12]: > 100 µM (inactive)
GI50 [13]: > 100 µM (inactive)
GI50 [57]: 32.5 µM (inactive)
GI50 [14]: 38.4 µM (inactive)
GI50 [15]: 66.4 µM (inactive)
GI50 [17]: > 100 µM (inactive)
GI50 [18]: > 100 µM (inactive)
GI50 [19]: > 100 µM (inactive)
GI50 [20]: > 100 µM (inactive)
GI50 [21]: > 100 µM (inactive)
GI50 [22]: > 100 µM (inactive)
GI50 [23]: > 100 µM (inactive)
GI50 [24]: > 100 µM (inactive)
GI50 [25]: > 100 µM (inactive)
GI50 [26]: > 100 µM (inactive)
GI50 [27]: 33.8 µM (inactive)
GI50 [28]: > 100 µM (inactive)
GI50 [29]: 38.9 µM (inactive)
GI50 [30]: 62.1 µM (inactive)
GI50 [31]: 47 µM (inactive)
GI50 [32]: 56.8 µM (inactive)
GI50 [33]: > 100 µM (inactive)
GI50 [34]: > 100 µM (inactive)
GI50 [35]: > 100 µM (inactive)
GI50 [58]: > 100 µM (inactive)
GI50 [36]: > 100 µM (inactive)
GI50 [37]: > 100 µM (inactive)
GI50 [38]: > 100 µM
GI50 [39]: > 100 µM (inactive)
GI50 [40]: > 100 µM (inactive)
GI50 [41]: 24.3 µM (inactive)
GI50 [43]: > 100 µM (inactive)
GI50 [44]: 58.9 µM (inactive)
GI50 [45]: > 100 µM (inactive)
GI50 [46]: > 100 µM (inactive)
GI50 [47]: > 100 µM (inactive)
GI50 [48]: > 100 µM (inactive)
GI50 [49]: 72.9 µM (inactive)
GI50 [50]: > 100 µM (inactive)
GI50 [51]: > 100 µM (inactive)
GI50 [52]: > 100 µM (inactive)
GI50 [53]: > 100 µM (inactive)
GI50 [54]: 88.1 µM (inactive)
GI50 [55]: > 100 µM (inactive)
GI50 [56]: > 100 µM (inactive)
